Results from patent publication US20210052705A1, “METHOD OF DRUG […] FOR PTH, PTHrP AND RELATED PEPTIDES” (Radius Health, Inc., priority 2011, published 2021).

Tests used:
in vivo [1] = conditions: male, Sprague Dawley, rat; for bioavailability: % F; for AUC(0-t): AUC0-t; for half-life: T1/2
Description: Certain drug coated microarrays were tested in vivo in a preclinical model using Sprague Dawley rats. […] Male Sprague Dawley rats with jugular vein catheters were purchased from Charles River Laboratories. Once received, they were acclimated for at least 24 hours prior to dosing.
Typically, one hour prior to dosing microneedle arrays were removed from refrigeration (approximately 4° C.) and allowed to equilibrate to room temperature.
The standard procedure for skin preparation and microneedle array application is as follows.
One day prior to dosing, an area just above the hind legs on the dorsal surface of the rat was shaved using electric clippers. Nair® hair removal lotion (Church & Dwight Co.) was then applied to the area for 5 to 8 minutes to remove remaining fur stubble. The Nair® lotion was then thoroughly removed using a damp cloth. The next day a microneedle array was applied using a spring-loaded applicator. The microneedle array was left in contact with skin for five minutes, before being removed. During array application and contact time the rats were manually restrained.
Blood was collected at three time points from each animal out of a possible total of five time destinations (5 minutes, 15 minutes, 30 minutes, 45 minutes, 90 minutes) from each rat on a staggered schedule so that all time points would be represented with extra sampling at 15 minutes without overdrawing from any animal. Approximately 1 mL of blood was collected via the catheter from the jugular vein using a syringe and needle from rats for their first two blood draws. For the terminal blood collection, animals were euthanized via CO2 chamber and approximately 1 mL of blood was collected via cardiac puncture. The blood was immediately transferred to a serum separator tube that contained 25 μL of a 2.5 mg/ml aprotinin (Sigma) solution.
Blood was collected from each rat 5, 10, 15, 30 and 45 minutes post dose. Approximately 600 μL of blood was collected via the catheter from the jugular vein using a syringe and needle from rats for their first four blood draws. For the terminal blood collection, animals were euthanized via CO2 chamber and approximately 600 μL of blood was collected via cardiac puncture. The blood was immediately transferred to a serum separator tube that contained 12 μL of a 2.5 mg/ml aprotinin (Sigma) solution.
Blood was collected three or four times from each rat at the time points depicted in the tables below. Approximately 1 mL of blood was collected via the catheter from the jugular vein using a syringe and needle from rats for any non-terminal time points. For the terminal blood collection, animals were euthanized via CO2 chamber and approximately 1 mL of blood was collected via cardiac puncture. The blood was immediately transferred to a serum separator tube that contained 20 μL of a 2.5 mg/ml aprotinin (Sigma) solution.
Blood was collected from each rat 5, 15, 30, 45, 90 and 120 minutes post dose. Approximately 500 μL of blood was collected via the catheter from the jugular vein using a syringe and needle from rats for their first five blood draws. For the terminal blood collection, animals were euthanized via CO2 chamber and approximately 500 μL of blood was collected via cardiac puncture.

in vivo [2] = conditions: Sprague-Dawley, rat, 13.6 ug
Description: Several additional single dose pharmacokinetic studies were performed in Sprague-Dawley rats.
Dose Administration Typically, one day prior to dosing, an area just above the hind legs on the dorsal side of the rat was shaved using electric clippers. Nair® hair removal lotion was then applied to the area for 5 to 8 minutes to remove remaining hair stubble. The Nair lotion was removed completely using a cloth dampened with water. The next day the microneedle array was applied using the supplied spring loaded applicator. The microneedle array was left in contact with the skin for either five minutes before removal or removed almost immediately (typically 2-3 seconds after skin contact). During microneedle application and contact, the rats were manually restrained.
Serum Sample Collection Blood was collected from each rat at 5, 15, 30, 45 and 90 minutes after application of microneedle arrays, for LCP-microneedle arrays and at 1, 5, 15 and 30 minutes after application for PC-microneedle arrays. Approximately 600 μL of blood was collected via the catheter from the jugular vein using a syringe and needle from rats for their first four blood draws. For the last blood collection, animals were euthanized via CO2 chamber and approximately 600 μL of blood was collected via cardiac puncture. The blood was immediately transferred to a serum separator tube that contained 12 μL of a 2.5 mg/ml aprotinin (Sigma) solution.

[3] = 9.8 ug, Concentrations of Peptide in Serum
[4] = 20 ug, Concentration of Peptide in Serum, Mean
[5] = 22 ug, Concentration of Peptide in Serum, Mean
[6] = 26.2 ug, Concentration of Peptide in Serum, Mean
[7] = 26.2 ug, Concentrations of Peptide in Serum
[8] = 27 ug, Concentration of Peptide in Serum, Mean
[9] = 27 ug, Concentrations of Peptide in Serum
[10] = 31 ug, Concentration of Peptide in Serum, Mean
[11] = 32 ug, Concentration of Peptide in Serum, Mean
[12] = 32 ug, Concentrations of Peptide in Serum
[13] = 45.6 ug, Concentration of Peptide in Serum, Mean
[14] = 54 ug, Concentrations of Peptide in Serum
[15] = 57.7 ug, Concentration of Peptide in Serum, Mean
[16] = 67.7 ug, Concentration of Peptide in Serum, Mean
[17] = 141.9 ug, Concentration of Peptide in Serum, Mean
[18] = 386.5 ug, Concentration of Peptide in Serum, Mean

CC[C@H](C)[C@H](NC(=O)[C@H](CO)NC(=O)[C@H](CCCCN)NC(=O)CNC(=O)[C@H](CCCCN)NC(=O)[C@H](CC(=O)O)NC(=O)[C@H](Cc1cnc[nH]1)NC(=O)[C@H](CC(C)C)NC(=O)[C@H](CC(C)C)NC(=O)[C@H](CCC(N)=O)NC(=O)[C@H](Cc1cnc[nH]1)NC(=O)[C@H](CCC(=O)O)NC(=O)[C@H](CO)NC(=O)[C@@H](NC(=O)[C@H](C)N)C(C)C)C(=O)N[C@@H](CCC(N)=O)C(=O)N[C@@H](CC(=O)O)C(=O)N[C@@H](CC(C)C)C(=O)N[C@@H](CCCNC(=N)N)C(=O)N[C@@H](CCCNC(=N)N)C(=O)N[C@@H](CCCNC(=N)N)C(=O)N[C@@H](CCC(=O)O)C(=O)N[C@@H](CC(C)C)C(=O)N[C@@H](CC(C)C)C(=O)N[C@@H](CCC(=O)O)C(=O)N[C@@H](CCCCN)C(=O)N[C@@H](CC(C)C)C(=O)N[C@@H](CC(C)C)C(=O)NC(C)(C)C(=O)N[C@@H](CCCCN)C(=O)N[C@@H](CC(C)C)C(=O)N[C@@H](Cc1cnc[nH]1)C(=O)N[C@H](C(=O)N[C@@H](C)C(N)=O)[C@@H](C)O [Peptide]
bioavailability (in vivo [1]; 9.8 ug): 49% | AUC(0-t) (in vivo [1]; 9.8 ug): 5.72 ng·h/mL | Cmax (in vivo [1]; 9.8 ug, Cmax): 12 ng/mL | level at 5 min (in vivo [1]; [3]): 12 ng/mL | level at 0.25 h (in vivo [1]; [3]): 9.65 ng/mL | level at 0.5 h (in vivo [1]; [3]): 4.96 ng/mL | level at 0.75 h (in vivo [1]; [3]): 2.07 ng/mL | level at 1 h (in vivo [1]; [3]): 1.47 ng/mL | level at 1.5 h (in vivo [1]; [3]): 0.62 ng/mL | level at 2 h (in vivo [1]; [3]): 0.38 ng/mL | half-life (in vivo [1]; 9.8 ug): 22 min | Tmax (in vivo [1]; 9.8 ug): 5 min | bioavailability (in vivo [1]; 20 ug): 47% | AUC(0-t) (in vivo [1]; 20 ug): 9.6 ng·h/mL | Cmax (in vivo [1]; 20 ug, Cmax): 11.9 ng/mL | level at 5 min (in vivo [1]; [4]): 9.34 ng/mL | level at 0.25 h (in vivo [1]; [4]): 11.9 ng/mL | level at 0.5 h (in vivo [1]; [4]): 6.4 ng/mL | level at 0.75 h (in vivo [1]; [4]): 7.12 ng/mL | level at 1.5 h (in vivo [1]; [4]): 3.14 ng/mL | half-life (in vivo [1]; 20 ug): 43 min | Tmax (in vivo [1]; 20 ug): 15 min | bioavailability (in vivo [1]; 20 ug/kg): 69% | AUC(0-t) (in vivo [1]; 20 ug/kg): 2.77 ng·h/mL | Cmax (in vivo [1]; 20 ug/kg, Cmax): 7.29 ng/mL | Cmax (in vivo [1]; 20 ug/kg, Cmax (20 μg/kg Dose)): 7.29 ng/mL | half-life (in vivo [1]; 20 ug/kg): 18 min | Tmax (in vivo [1]; 20 ug/kg): 10 min | bioavailability (in vivo [1]; 22 ug): 36% | AUC(0-t) (in vivo [1]; 22 ug): 7.75 ng·h/mL | Cmax (in vivo [1]; 22 ug, Cmax): 17.1 ng/mL | level at 5 min (in vivo [1]; [5]): 17.1 ng/mL | level at 0.25 h (in vivo [1]; [5]): 13.2 ng/mL | level at 0.5 h (in vivo [1]; [5]): 6.46 ng/mL | level at 0.75 h (in vivo [1]; [5]): 3.35 ng/mL | level at 1.5 h (in vivo [1]; [5]): 0.8 ng/mL | half-life (in vivo [1]; 22 ug): 19 min | Tmax (in vivo [1]; 22 ug): 5 min | bioavailability (in vivo [1]; 26.2 ug): 101% | AUC(0-t) (in vivo [1]; 26.2 ug): 24.1 ng·h/mL | Cmax (in vivo [1]; 26.2 ug, Cmax): 44 ng/mL | level at 5 min (in vivo [1]; [6]): 34.6 ng/mL | level at 0.25 h (in vivo [1]; [6]): 44 ng/mL | level at 0.5 h (in vivo [1]; [6]): 17.3 ng/mL | level at 0.75 h (in vivo [1]; [6]): 13.8 ng/mL | level at 1.5 h (in vivo [1]; [6]): 2.22 ng/mL | level at 5 min (in vivo [1]; [7]): 41.1 ng/mL | level at 10 min (in vivo [1]; [7]): 26.7 ng/mL | level at 0.25 h (in vivo [1]; [7]): 42.8 ng/mL | level at 0.5 h (in vivo [1]; [7]): 17.4 ng/mL | level at 0.75 h (in vivo [1]; [7]): 12.5 ng/mL | half-life (in vivo [1]; 26.2 ug): 18 min | Tmax (in vivo [1]; 26.2 ug): 15 min | AUC(0-t) (in vivo [1]; 27 ug): 17 ng·h/mL | Cmax (in vivo [1]; 27 ug, Cmax): 31 ng/mL | level at 5 min (in vivo [1]; [8]): 32.6 ng/mL | level at 0.25 h (in vivo [1]; [8]): 31 ng/mL | level at 0.5 h (in vivo [1]; [8]): 18.1 ng/mL | level at 5 min (in vivo [1]; 27 ug, Concentration of Peptide in Serum, individual rat): 28.2 ng/mL | level at 5 min (in vivo [1]; [9]): 27.4 ng/mL | level at 0.25 h (in vivo [1]; [9]): 29.7 ng/mL | level at 0.5 h (in vivo [1]; [9]): 12.2 ng/mL | level at 0.75 h (in vivo [1]; [9]): 9.1 ng/mL | half-life (in vivo [1]; 27 ug): 20 min | Tmax (in vivo [1]; 27 ug): 15 min | bioavailability (in vivo [1]; 31 ug): 42% | AUC(0-t) (in vivo [1]; 31 ug): 12.5 ng·h/mL | Cmax (in vivo [1]; 31 ug, Cmax): 23.6 ng/mL | level at 5 min (in vivo [1]; [10]): 20.3 ng/mL | level at 0.25 h (in vivo [1]; [10]): 23.6 ng/mL | level at 0.5 h (in vivo [1]; [10]): 12.5 ng/mL | level at 0.75 h (in vivo [1]; [10]): 4.73 ng/mL | level at 1.5 h (in vivo [1]; [10]): 1.04 ng/mL | half-life (in vivo [1]; 31 ug): 17 min | Tmax (in vivo [1]; 31 ug): 15 min | bioavailability (in vivo [1]; 32 ug): 102% | AUC(0-t) (in vivo [1]; 32 ug): 27.4 ng·h/mL | Cmax (in vivo [1]; 32 ug, Cmax): 49.2 ng/mL | level at 5 min (in vivo [1]; [11]): 45.2 ng/mL | level at 0.25 h (in vivo [1]; [11]): 49.2 ng/mL | level at 0.5 h (in vivo [1]; [11]): 18.9 ng/mL | level at 0.75 h (in vivo [1]; [11]): 13.6 ng/mL | level at 1.5 h (in vivo [1]; [11]): 5.03 ng/mL | level at 5 min (in vivo [1]; [12]): 25.1 ng/mL | level at 10 min (in vivo [1]; [12]): 34.4 ng/mL | level at 0.25 h (in vivo [1]; [12]): 34 ng/mL | level at 0.5 h (in vivo [1]; [12]): 17.8 ng/mL | level at 0.75 h (in vivo [1]; [12]): 12.7 ng/mL | half-life (in vivo [1]; 32 ug): 25 min | Tmax (in vivo [1]; 32 ug): 15 min | bioavailability (in vivo [1]; 45.6 ug): 108% | AUC(0-t) (in vivo [1]; 45.6 ug): 48.7 ng·h/mL | Cmax (in vivo [1]; 45.6 ug, Cmax): 88.2 ng/mL | level at 5 min (in vivo [1]; [13]): 88.2 ng/mL | level at 0.25 h (in vivo [1]; [13]): 76.1 ng/mL | level at 0.5 h (in vivo [1]; [13]): 36.1 ng/mL | level at 0.75 h (in vivo [1]; [13]): 29.3 ng/mL | level at 1.5 h (in vivo [1]; [13]): 4.79 ng/mL | half-life (in vivo [1]; 45.6 ug): 20 min | Tmax (in vivo [1]; 45.6 ug): 5 min | bioavailability (in vivo [1]; 54 ug): 37% | AUC(0-t) (in vivo [1]; 54 ug): 23 ng·h/mL | Cmax (in vivo [1]; 54 ug, Cmax): 49.8 ng/mL | level at 5 min (in vivo [1]; [14]): 16.5 ng/mL | level at 0.25 h (in vivo [1]; [14]): 49.8 ng/mL | level at 0.5 h (in vivo [1]; [14]): 17.1 ng/mL | level at 0.75 h (in vivo [1]; [14]): 9.37 ng/mL | level at 1 h (in vivo [1]; [14]): 7.75 ng/mL | half-life (in vivo [1]; 54 ug): 24 min | Tmax (in vivo [1]; 54 ug): 15 min | bioavailability (in vivo [1]; 57.7 ug): 82% | AUC(0-t) (in vivo [1]; 57.7 ug): 41.8 ng·h/mL | Cmax (in vivo [1]; 57.7 ug, Cmax): 60.8 ng/mL | level at 5 min (in vivo [1]; [15]): 43.1 ng/mL | level at 0.25 h (in vivo [1]; [15]): 60.8 ng/mL | level at 0.5 h (in vivo [1]; [15]): 40.1 ng/mL | level at 0.75 h (in vivo [1]; [15]): 28.1 ng/mL | level at 1.5 h (in vivo [1]; [15]): 3.72 ng/mL | half-life (in vivo [1]; 57.7 ug): 18 min | Tmax (in vivo [1]; 57.7 ug): 15 min | bioavailability (in vivo [1]; 67.7 ug): 74% | AUC(0-t) (in vivo [1]; 67.7 ug): 48.2 ng·h/mL | Cmax (in vivo [1]; 67.7 ug, Cmax): 82.7 ng/mL | level at 5 min (in vivo [1]; [16]): 64.9 ng/mL | level at 0.25 h (in vivo [1]; [16]): 82.7 ng/mL | level at 0.5 h (in vivo [1]; [16]): 51.3 ng/mL | level at 0.75 h (in vivo [1]; [16]): 19.7 ng/mL | level at 1.5 h (in vivo [1]; [16]): 7.6 ng/mL | half-life (in vivo [1]; 67.7 ug): 22 min | Tmax (in vivo [1]; 67.7 ug): 15 min | AUC(0-t) (in vivo [1]; 141.9 ug): 173 ng·h/mL | Cmax (in vivo [1]; 141.9 ug, Cmax): 230 ng/mL | level at 5 min (in vivo [1]; [17]): 186 ng/mL | level at 0.25 h (in vivo [1]; [17]): 230 ng/mL | level at 0.5 h (in vivo [1]; [17]): 219 ng/mL | level at 0.75 h (in vivo [1]; [17]): 91.8 ng/mL | level at 1.5 h (in vivo [1]; [17]): 23.7 ng/mL | half-life (in vivo [1]; 141.9 ug): 21 min | Tmax (in vivo [1]; 141.9 ug): 15 min | bioavailability (in vivo [1]; 386.5 ug): 22% | AUC(0-t) (in vivo [1]; 386.5 ug): 75.5 ng·h/mL | Cmax (in vivo [1]; 386.5 ug, Cmax): 118 ng/mL | level at 5 min (in vivo [1]; [18]): 97.5 ng/mL | level at 0.25 h (in vivo [1]; [18]): 133 ng/mL | level at 0.5 h (in vivo [1]; [18]): 75.4 ng/mL | level at 0.75 h (in vivo [1]; [18]): 42.2 ng/mL | level at 1.5 h (in vivo [1]; [18]): 7.53 ng/mL | half-life (in vivo [1]; 386.5 ug): 18 min | Tmax (in vivo [1]; 386.5 ug): 15 min | AUC (in vivo [2]; AUC5-90, Mean): 3.68 ng·h/mL | Cmax (in vivo [2]; Cmax, Mean): 9.7 ng/mL | level at 5 min (in vivo [2]; Concentration in Serum at 5 min, Mean): 8.8 ng/mL | level at 0.25 h (in vivo [2]; Concentration in Serum at 15 min, Mean): 8.6 ng/mL | level at 0.5 h (in vivo [2]; Concentration in Serum at 30 min, Mean): 6 ng/mL | Tmax (in vivo [2]; Tmax, Mean): 9 min
